Test results taken from patent publication US11208400B2, “Substituted 6-(1H-pyrazol-1-yl)pyrimidin-4-amine derivatives and uses thereof” (Bayer Aktiengesellschaft, priority 2016, dated 2021).

Target: T1, human Npt2a (Homo sapiens, UniProt Q06495)
T1 construct: expressed in transfected cells
T1 sequence (Q06495 1-639): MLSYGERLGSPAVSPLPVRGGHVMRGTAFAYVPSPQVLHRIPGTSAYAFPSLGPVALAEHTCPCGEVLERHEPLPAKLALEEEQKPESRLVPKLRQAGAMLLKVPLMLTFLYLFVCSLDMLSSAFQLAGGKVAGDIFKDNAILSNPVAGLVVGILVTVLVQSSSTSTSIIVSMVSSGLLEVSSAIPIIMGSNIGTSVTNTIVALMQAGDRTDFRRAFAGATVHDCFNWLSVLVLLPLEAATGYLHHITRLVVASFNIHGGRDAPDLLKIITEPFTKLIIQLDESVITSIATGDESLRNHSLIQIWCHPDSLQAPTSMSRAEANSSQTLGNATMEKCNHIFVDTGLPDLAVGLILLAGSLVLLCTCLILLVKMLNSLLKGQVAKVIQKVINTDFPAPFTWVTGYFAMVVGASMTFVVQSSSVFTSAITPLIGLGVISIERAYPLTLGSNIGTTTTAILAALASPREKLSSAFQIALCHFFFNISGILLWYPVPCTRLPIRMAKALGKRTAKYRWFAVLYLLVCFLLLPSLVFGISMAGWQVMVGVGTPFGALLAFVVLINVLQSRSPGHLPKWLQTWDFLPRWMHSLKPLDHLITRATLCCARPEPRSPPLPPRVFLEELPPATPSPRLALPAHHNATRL
Test: Npt2a activity cell based assay, membrane potential dye, CHO T-REx hNpt2a cells
Conditions: doxycycline-induced, depolarization by sodium phosphate influx, average or median values if tested more than once
Summary of the method: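 Cells were doxycycline-induced CHO T-REx hNpt2a, dye-loaded and pretreated 5 min at RT with 1 nM–50 μM compound in Na-free pH 7.4 buffer. IC50 was fit to the post/pre-trigger fluorescence ratio.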

SMILES | IC50
CCc1c(Nc2cc(-n3nc(C)c(CO)c3C)ncn2)nn(C)c1-c1ccc(F)cc1 [Example 58, [1-(6-{[4-ethyl-5-(4-fluorophenyl)-1-methyl-1H-pyrazol-3-yl]amino}pyrimidin-4-yl)-3,5-dimethyl-1H-pyrazol-4-yl]methanol] | 0.76 µM
CCOC(=O)c1c(C)nn(-c2cc(Nc3c(C)c(-c4ccc(F)cc4)nn3C)ncn2)c1C [Example 59, ethyl 1-(6-{[3-(4-fluorophenyl)-1,4-dimethyl-1H-pyrazol-5-yl]amino}pyrimidin-4-yl)-3,5-dimethyl-1H-pyrazole-4-carboxylate] | 0.012 µM
CCOC(=O)c1c(C)nn(-c2cc(Nc3n[nH]c(-c4ccc(F)cc4)c3C)ncn2)c1C [Example 60, ethyl 1-(6-{[5-(4-fluorophenyl)-4-methyl-1H-pyrazol-3-yl]amino}pyrimidin-4-yl)-3,5-dimethyl-1H-pyrazole-4-carboxylate] | 0.043 µM
CCOC(=O)c1c(C)nn(-c2cc(Nc3nn(C)c(-c4ccc(F)cc4)c3C)ncn2)c1C [Example 61, ethyl 1-(6-{[5-(4-fluorophenyl)-1,4-dimethyl-1H-pyrazol-3-yl]amino}pyrimidin-4-yl)-3,5-dimethyl-1H-pyrazole-4-carboxylate] | 0.0044 µM
Cc1cc(C)n(-c2cc(Nc3nn(C)c(-c4ccccc4)c3C)ncn2)n1 [Example 62, N-(1,4-dimethyl-5-phenyl-1H-pyrazol-3-yl)-6-(3,5-dimethyl-1H-pyrazol-1-yl)pyrimidin-4-amine] | 0.135 µM
Cc1nn(-c2cc(Nc3c(C)nn(-c4ccc(F)cc4)c3C)ncn2)c(C)c1Cl [Example 63, 6-(4-chloro-3,5-dimethyl-1H-pyrazol-1-yl)-N-[1-(4-fluorophenyl)-3,5-dimethyl-1H-pyrazol-4-yl]pyrimidin-4-amine] | 0.00765 µM
CCc1c(Nc2cc(-n3nc(C)cc3C(F)F)ncn2)nn(C)c1-c1ccc(F)cc1 [Example 64, 6-[5-(difluoromethyl)-3-methyl-1H-pyrazol-1-yl]-N-[4-ethyl-5-(4-fluorophenyl)-1-methyl-1H-pyrazol-3-yl]pyrimidin-4-amine] | 0.00625 µM
Cc1cc(C(F)F)n(-c2cc(Nc3n[nH]c(-c4ccc(F)cc4)c3C)ncn2)n1 [Example 66, 6-[5-(difluoromethyl)-3-methyl-1H-pyrazol-1-yl]-N-[5-(4-fluorophenyl)-4-methyl-1H-pyrazol-3-yl]pyrimidin-4-amine] | 0.087 µM
Cc1nn(-c2cc(Nc3nn(C)c(-c4ccc(F)cc4)c3C)ncn2)c(C)c1Cl [Example 67, 6-(4-chloro-3,5-dimethyl-1H-pyrazol-1-yl)-N-[5-(4-fluorophenyl)-1,4-dimethyl-1H-pyrazol-3-yl]pyrimidin-4-amine] | 0.00345 µM
Cc1nn(-c2cc(Nc3c(C)c(-c4ccc(F)cc4)nn3C)ncn2)c(C)c1Cl [Example 68, 6-(4-chloro-3,5-dimethyl-1H-pyrazol-1-yl)-N-[3-(4-fluorophenyl)-1,4-dimethyl-1H-pyrazol-5-yl]pyrimidin-4-amine] | 0.0315 µM
Cc1cc(C(F)F)n(-c2cc(Nc3nn(C)c(-c4ccc(F)cc4)c3C)ncn2)n1 [Example 69, 6-[5-(difluoromethyl)-3-methyl-1H-pyrazol-1-yl]-N-[5-(4-fluorophenyl)-1,4-dimethyl-1H-pyrazol-3-yl]pyrimidin-4-amine] | 0.0084 µM
Cc1cc(C(F)F)n(-c2cc(Nc3c(C)c(-c4ccc(F)cc4)nn3C)ncn2)n1 [Example 70, 6-[5-(difluoromethyl)-3-methyl-1H-pyrazol-1-yl]-N-[3-(4-fluorophenyl)-1,4-dimethyl-1H-pyrazol-5-yl]pyrimidin-4-amine] | 0.036 µM
Cc1cc(C)n(-c2cc(Nc3c(C)c(-c4ccc(F)cc4)nn3C)ncn2)n1 [Example 71, 6-(3,5-dimethyl-1H-pyrazol-1-yl)-N-[3-(4-fluorophenyl)-1,4-dimethyl-1H-pyrazol-5-yl]pyrimidin-4-amine] | 0.05 µM
Cc1nn(-c2cc(Nc3n[nH]c(-c4ccc(F)cc4)c3C)ncn2)c(C)c1Cl [Example 72, 6-(4-chloro-3,5-dimethyl-1H-pyrazol-1-yl)-N-[5-(4-fluorophenyl)-4-methyl-1H-pyrazol-3-yl]pyrimidin-4-amine] | 0.0154 µM
Cc1cc(C)n(-c2cc(Nc3nn(C)c(-c4ccc(F)cc4)c3C)ncn2)n1 [Example 73, 6-(3,5-dimethyl-1H-pyrazol-1-yl)-N-[5-(4-fluorophenyl)-1,4-dimethyl-1H-pyrazol-3-yl]pyrimidin-4-amine] | 0.0157 µM
Cc1cc(C)n(-c2cc(Nc3c(C)c(-c4ccccc4)nn3C)ncn2)n1 [Example 75, N-(1,4-dimethyl-3-phenyl-1H-pyrazol-5-yl)-6-(3,5-dimethyl-1H-pyrazol-1-yl)pyrimidin-4-amine] | 0.042 µM
Cc1cc(C)n(-c2cc(Nc3cn(-c4ccc(F)cc4)nc3C)ncn2)n1 [Example 77, 6-(3,5-dimethyl-1H-pyrazol-1-yl)-N-[1-(4-fluorophenyl)-3-methyl-1H-pyrazol-4-yl]pyrimidin-4-amine] | 2.23 µM
Cc1cc(C)n(-c2cc(Nc3c(C)nn(-c4ccc(F)cc4)c3C)ncn2)n1 [Example 78, 6-(3,5-dimethyl-1H-pyrazol-1-yl)-N-[1-(4-fluorophenyl)-3,5-dimethyl-1H-pyrazol-4-yl]pyrimidin-4-amine] | 0.247 µM
CCOC(=O)c1c(C)nn(-c2cc(Nc3c(Cl)c(-c4ccccc4)nn3C)ncn2)c1C [Example 79, ethyl 1-{6-[(4-chloro-1-methyl-3-phenyl-1H-pyrazol-5-yl)amino]pyrimidin-4-yl}-3,5-dimethyl-1H-pyrazole-4-carboxylate] | 0.031 µM
Cc1nn(-c2cc(Nc3c(Cl)c(-c4ccccc4)nn3C)ncn2)c(C)c1Cl [Example 80, 6-(4-chloro-3,5-dimethyl-1H-pyrazol-1-yl)-N-(4-chloro-1-methyl-3-phenyl-1H-pyrazol-5-yl)pyrimidin-4-amine] | 0.044 µM
CCOC(=O)c1c(C)nn(-c2cc(Nc3nn(C)c(-c4ccccc4)c3Cl)ncn2)c1C [Example 81, ethyl 1-{6-[(4-chloro-1-methyl-5-phenyl-1H-pyrazol-3-yl)amino]pyrimidin-4-yl}-3,5-dimethyl-1H-pyrazole-4-carboxylate] | 0.011 µM
CC(=O)c1c(Nc2cc(-n3nc(C)cc3C)ncn2)nn(C)c1-c1ccc(F)cc1 [Example 82, 1-[3-{[6-(3,5-dimethyl-1H-pyrazol-1-yl)pyrimidin-4-yl]amino}-5-(4-fluorophenyl)-1-methyl-1H-pyrazol-4-yl]ethanone] | 1.5 µM
CCOC(=O)c1cc(C)n(-c2cc(Nc3nn(C)c(-c4ccc(F)cc4)c3CC)ncn2)n1 [Example 83, ethyl 1-(6-{[4-ethyl-5-(4-fluorophenyl)-1-methyl-1H-pyrazol-3-yl]amino}pyrimidin-4-yl)-5-methyl-1H-pyrazole-3-carboxylate] | 1.3 µM
Cc1nn(-c2cc(Nc3nn(C)c(-c4ccccc4)c3C)ncn2)c(C)c1Cl [Example 84, 6-(4-chloro-3,5-dimethyl-1H-pyrazol-yl)-N-(1,4-dimethyl-5-phenyl-1H-pyrazol-3-yl)pyrimidin-4-amine] | 0.0755 µM
CCc1c(Nc2cc(-n3nc(C)c(C(=O)N4CC(F)(C(F)(F)F)C4)c3C)ncn2)nn(C)c1-c1ccc(F)cc1 [Example 85, [1-(6-{[4-ethyl-5-(4-fluorophenyl)-1-methyl-1H-pyrazol-3-yl]amino}pyrimidin-4-yl)-3,5-dimethyl-1H-pyrazol-4-yl][3-fluoro-3-(trifluoromethyl)azetidin-1-yl]methanone] | 0.13 µM
Cc1nn(-c2cc(Nc3c(C)c(-c4ccccc4)nn3C)ncn2)c(C)c1Cl [Example 86, 6-(4-chloro-3,5-dimethyl-1H-pyrazol-1-yl)-N-(1,4-dimethyl-3-phenyl-1H-pyrazol-5-yl)pyrimidin-4-amine] | 0.05 µM
CCOC(=O)Cc1c(C)nn(-c2cc(Nc3nn(C)c(-c4ccc(F)cc4)c3CC)ncn2)c1C [Example 87, ethyl [1-(6-{[4-ethyl-5-(4-fluorophenyl)-1-methyl-1H-pyrazol-3-yl]amino}pyrimidin-4-yl)-3,5-dimethyl-1H-pyrazol-4-yl]acetate] | 0.032 µM
Cc1nn(-c2cc(Nc3c(Cl)c(-c4ccc(F)cc4)nn3C)ncn2)c(C)c1Cl [Example 88, 6-(4-chloro-3,5-dimethyl-1H-pyrazol-1-yl)-N-[4-chloro-3-(4-fluorophenyl)-1-methyl-1H-pyrazol-5-yl]pyrimidin-4-amine] | 0.0285 µM
Cc1nn(-c2cc(Nc3nn(C)c(-c4ccc(F)cc4)c3Cl)ncn2)c(C)c1Cl [Example 89, 6-(4-chloro-3,5-dimethyl-1H-pyrazol-1-yl)-N-[4-chloro-5-(4-fluorophenyl)-1-methyl-1H-pyrazol-3-yl]pyrimidin-4-amine] | 0.0048 µM
Cc1cc(C)n(-c2cc(Nc3c(Cl)c(-c4ccc(F)cc4)nn3C)ncn2)n1 [Example 90, N-[4-chloro-3-(4-fluorophenyl)-1-methyl-1H-pyrazol-5-yl]-6-(3,5-dimethyl-1H-pyrazol-1-yl)pyrimidin-4-amine] | 0.133 µM
